Reference: patent publication US20170100367A1, “USE OF ERIBULIN IN THE TREATMENT OF CANCER” (priority 2014, published 2017)

How the values were obtained:
[1] = Pharmacokinetics study of carboplatin in tumor after administration of eribulin in MDA-MB-231 s.c. xenograft model; assay type: in vivo, nude mice; conditions: for Concentration of Carboplatin in MDA-MB-231 Tumor, AUC (0-8): tumor homogenate
Experimental: Pharmacokinetics Study of Carboplatin in Tumor after Administration of Eribulin in Human Breast Cancer Cell Line MDA-MB-231 s.c. Xenograft Models
Female nude mice, once acclimatised, were subcutaneously injected with 5×10^6 MDA-MB-231 cells in a 1:1 ratio (50 μL each) with matrigel in a volume of 0.1 mL in phosphate buffered saline, on the right flank area using a 26-gauge needle. This ensured that sufficient mice with tumors in the volume range of approximately 200˜300 mm^3 were available for the study. When the tumors reached an average size of approximately 250 mm^3, 30 mice were selected. The study included an initial experiment containing 24 mice. The first group received eribulin mesylate dosed i.v. as a single dose of 3 mg/kg; for a 20 g animal 200 μL of 0.3 mg/mL eribulin mesylate solution was dosed. To control for tumor size, a vehicle control group (vehicle B) consisting of 27 mice, was introduced before carboplatin dosing. The mice in this group were chosen so that their tumor size matches the tumor size of the eribulin mesylate-treated mice group. Vehicle B group was split in 2 groups, first one of 3 mice which received vehicle (saline) i.v. injection and the second group of 24 mice received carboplatin i.v. injection. On day 1 of vehicle B or on day 15 after the treatment of eribulin, 100 mg/kg carboplatin was administered to all mice intravenously and tumor samples were collected under anesthesia at the assigned time points 0.083, 0.25, 0.5, 1, 4, 8, 24, and 48 hours (n=3 for each time point). Tumors were homogenized with 3 times their respective weights of 1×PBS using a Mini Bead Beater-96, and the concentration of carboplatin in each tumor homogenate was analyzed by a validated LC-MS method.
The PK parameters of carboplatin in tumors were calculated using a non-compartmental approach (Pheonix/WinNonlin v. 6.3, Pharsight; Mountain View, Calif.). The time point at which the concentration of carboplatin highest was denoted as tmax. The highest concentration of carboplatin was denoted as Cmax. The observed area under the tumor concentration versus time curve from time zero to the last quantifiable time point (AUC (0-t)) and to infinity (AUC (0-inf)) were calculated using the trapezoidal method. The AUC (0-inf) was calculated as AUC (0-t)+AUC extrap, where AUC extrap represents the extrapolated AUC from the last quantifiable time point (Clast) to infinity, and was calculated as Clast/λZ. Lamda z (λZ), slope of the concentration versus time curve during the terminal phase, was determined by linear regression.
The mean, standard deviation (SD) and percent coefficient of variation (% CV) of tumor concentrations were calculated using Excel 2010 (Microsoft, Redmond, Wash.). The mean, SD, and % CV for the PK parameters of carboplatin were determined in WinNonlin or Excel 2010. […]
An AB Sciex (Foster City, Calif.) API5000 mass spectrometer, with electrospray ionization under positive ion mode, was used for sample analysis. The collision-activated dissociation (CAD) with N2 was used to generate structure characteristic product ions for quantitation.
The peak areas of carboplatin were integrated using Analyst 1.6 (AB Sciex, Foster City, Calif.), and the areas were imported into Watson 7.2 (Thermo Fisher Scientific, Waltham, Mass.). Internal standard, tolbutamide, was added to each sample, excluded blank without IS, however IS was not used for quantitation due to inconsistent instrument response of tolbutamide in all analytical runs. […]

[2] = tested on: human breast cancer cell line MDA-MB-231 s.c. xenograft; experiment: Antitumor effect of capecitabine after eribulin treatment in MDA-MB-231 s.c. xenograft model; assay type: in vivo, nude mice; conditions: capecitabine 540 mg/kg QD8 p.o. after eribulin 1.0 mg/kg QD1 i.v.; MDA-MB-231 xenograft; FIG. 1
Experimental: Antitumor Effect of Capecitabine after Eribulin Treatment in Human Breast Cancer Cell Line MDA-MB-231 s.c. Xenograft Models
MDA-MB-231 cells were cultured with RPMI 1640 medium containing 10% (v/v) FBS. Cultured tumor cells were suspended in 50% (v/v) BD Matrigel (BD bioscience, San Jose, Calif.) at a density of 10×10^7 cells/mL for s.c. inoculation into nude mice. A 0.1-mL aliquot of the cell suspension was transplanted subcutaneously into the right flank region of mice. Tumor volumes were calculated according to the following formula: (width [mm]^2×length [mm])/2. Tumor weights were calculated according to the following formula: tumor volume (mm^3)×1 (mg/mm^3). In the MDA-MB-231 xenograft model, when the mean tumor volume reached between 100 and 300 mg (1 mm^3=1 mg) on day 1, nude mice were randomly divided into each group. Control (no treatment); capecitabine, 540 mg/kg, QD8, p.o.; or eribulin, 1.0 mg/kg, QD1, i.v. was administered on day 1. In the eribulin group, eribulin-treated mice were randomly divided into two groups. […] The administration volume (0.1 mL/10 g body weight) was calculated based on the body weight before administration. The tumor volume was measured two times per week. […] The data was analyzed by the Dunnett multiple comparison test to compare two groups (GraphPad Prism version 6.02 (GraphPad Software Inc., La Jolla, Calif.)). […]

[3] = eribulin mesylate 3 mg/kg i.v., carboplatin 100 mg/kg i.v. on day 15

N.N.O=C([O-])C1(C(=O)[O-])CCC1.[Pt+2] [Carboplatin, carboplatin]
Concentration of Carboplatin in MDA-MB-231 Tumor, AUC (0-8) ([1]; Eribulin pretreatment (eribulin mesylate 3 mg/kg i.v. single dose), carboplatin 100 mg/kg i.v. on day 15): 50504.02 ng·h/g
Concentration of Carboplatin in MDA-MB-231 Tumor, AUC (0-8) ([1]; Vehicle B group (no eribulin), carboplatin 100 mg/kg i.v.): 36864.98 ng·h/g
AUC (0-8) of carboplatin in tumor, eribulin pretreatment group relative to Vehicle B group [1, 3]: about 1.37 fold
Cmax of carboplatin in tumor, eribulin pretreatment group relative to Vehicle B group [1, 3]: about 2.20 fold
exposure of carboplatin in tumors ([1]; eribulin pretreatment group mice, Table 1, FIG. 4): high exposure

CCCCCOC(=O)Nc1nc(=O)n([C@@H]2O[C@H](C)[C@@H](O)[C@H]2O)cc1F [capecitabine]
antitumor activity of capecitabine with eribulin pretreatment compared with that without pretreatment [2]: significantly enhanced
